Like-named read-outs stand apart in the source and are kept apart here.
Tests used:
[1] = Clinical pharmacokinetics of abexinostat, IV and oral dosing; details: human, in vivo; for bioavailability: humans; for AUC(0-inf): humans with cancer, solution form, read-out: Systemic exposure measured as AUC0-∞
Method: In clinical trials involving humans with cancer, abexinostat in solution form was administered at 2 mg/kg as a single oral dose and as multiple 2-hour IV infusion doses.

[2] = Pharmacokinetics in laboratory animals, fasted state versus fed state; format: in vivo
[3] = Site of absorption of abexinostat
RAD51 = assay: Pre-clinical models, expression of DNA repair genes
Source text: Following chemotherapy and/or radiation treatment, some patient's tumors may turn on certain genes as a strategy by the tumor to adapt to the therapy and become resistant to cell death. One example of a genetic change that occurs in many cancers is the activation of the DNA repair gene RAD51. In response to treatment with DNA-damaging chemotherapy or radiation, tumors will often turn on DNA repair genes (including RAD51) as an adaptive strategy to help the tumor repair the DNA damage done by these agents.

tumor cell lines = assay: In vitro activity against tumor cell lines; format: cell-based
[4] = tested on: lung, colon, prostate, pancreatic and brain tumors; assay: Mouse tumor models; format: in vivo
primary human tumors = assay: Ex vivo activity in primary human tumors; format: cell-based; details: tumors from patients
[5] = Incidence of thrombocytopenia by dosing frequency; format: in vivo, human; details: twice a day dosing compared to three times a day dosing
Method: In some embodiments, abexinostat (or a salt thereof; e.g., abexinostat HCl) is administered once per day during a cycle of abexinostat (or a salt thereof; e.g., abexinostat HCl). In some embodiments, abexinostat (or a salt thereof; e.g., abexinostat HCl) is administered twice per day during a cycle of abexinostat (or a salt thereof; e.g., abexinostat HCl). In some embodiments, abexinostat (or a salt thereof; e.g., abexinostat HCl) is administered three times per day during a cycle of abexinostat (or a salt thereof; e.g., abexinostat HCl).
In certain instances, thrombocytopenia is a side effect observed in humans that receive treatment with HDAC inhibitor compounds. Grade 4 thrombocytopenia typically includes instances when the human has a platelet count less than 25,000 per […]. Thrombocytopenia may be ameliorated or avoided by lowering the daily dose of abexinostat. In some embodiment, a method disclosed herein further comprises an abexinostat (or a salt thereof; e.g., abexinostat HCl) drug holiday following an abexinostat (or a salt thereof; e.g., abexinostat HCl) cycle.

bioavailability ([1]; 2 mg/kg, administered as immediate release capsules or an oral solution): ~27% | AUC(0-inf) ([1]; 2 mg/kg, multiple 2-hour IV infusion doses): 5.9 µM·h | AUC(0-inf) ([1]; 2 mg/kg, single oral dose): 1.45 µM·h | bioavailability ([1]; from AUC0-∞ of oral versus IV dosing at 2 mg/kg): ~27%
Compound: CN(C)Cc1c(C(=O)NCCOc2ccc(C(=O)NO)cc2)oc2ccccc12 [abexinostat, N-hydroxy-4-{2-[3-(N,N-dimethylaminomethyl)benzofuran-2-ylcarbonylamino]ethoxy}-benzamide]
pharmacokinetics, fasted state versus fed state [2]: difference in pharmacokinetics was observed | site of absorption [3]: preferentially absorbed in the intestines | effect on RAD51 (and other DNA repair genes) (RAD51): able to turn off RAD51 | activity against tumor cell lines (tumor cell lines): active against many tumor cell lines | efficacy in mouse tumor models [4]: efficacious in mouse models of lung, colon, prostate, pancreatic and brain tumors | activity in primary human tumors (primary human tumors): active in primary human tumors from patients with colon, ovarian, lung and many hematological cancers | incidences of thrombocytopenia [5]: reduces the incidences of thrombocytopenia

Reference: US20150335609A1, “COMBINATIONS OF HISTONE DEACETYLASE INHIBITOR AND PAZOPANIB AND USES THEREOF” (Pharmacyclics, Inc., priority 2012, published 2015)
